Test results taken from PubChem BioAssay (NCI).
Several values for one entry are separate records, joined by “and”; a condition that tells them apart may be missing. Equal entries are not always repeated.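 Dose response: 5 concentrations. Exposure: 48 h. Format: 96-well plates. Endpoint: linear interpolation; highest concentration if not reached. GI50 marks 50% less growth. Definition used: TGI = concentration required for complete inhibition of growth.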

Key:
Assay in all cases: NCI-60 cell line screen, 48 h
[1] = test system: 786-0 renal
[2] = test system: MALME-3M melanoma
[3] = test system: NCI-H460 lung
[4] = test system: SNB-19 CNS
[5] = test system: SK-MEL-2 melanoma
[6] = test system: MDA-MB-435
[7] = test system: NCI-H522 lung
[8] = test system: HL-60(TB) leukemia
[9] = test system: KM12 colon
[10] = test system: HOP-62 NSCLC

| SMILES | GI50 [1] [µM] | TGI [1] | GI50 [2] [µM] | TGI [2] | GI50 [3] [µM] | TGI [3] | GI50 [4] [µM] | GI50 [5] [µM] | TGI [5] | GI50 [6] [µM] | TGI [6] [µM] | GI50 [7] [µM] | TGI [7] | GI50 [8] [µM] | TGI [8] [µM] | GI50 [9] [µM] | TGI [9] [µM] | GI50 [10] | TGI [10] | TGI [4] [µM] |
| --- | --- | --- | --- | --- | --- | --- | --- | --- | --- | --- | --- | --- | --- | --- | --- | --- | --- | --- | --- | --- |
| C=C1COC(O)(C2OCOC(C3CC(=O)NC(=O)C3)C2O)C1C (stereo unspecified) | 0.00362 | 0.0532 µM | 0.00285 | 0.0154 µM and 0.0364 µM | 0.0107 | 0.18 µM and 0.172 µM | 0.0036 | 0.00243 | 0.00927 µM and 0.0446 µM | 0.00481 | 0.037 | 0.00201 | 0.00684 µM and 0.00593 µM and 0.0137 µM | 0.00217 | 0.0123 | 0.00176 | 0.0212 | 0.00277 µM | 0.0357 µM and 0.0382 µM | – |
| O=C(O)C1C2C=CC(C2)C1C(=O)O (stereo unspecified) | > 100 | > 100 µM | > 100 | > 100 µM | > 100 | > 100 µM | > 100 | > 100 | > 100 µM | > 100 | > 100 | > 100 | > 100 µM | > 100 | > 100 | > 100 | > 100 | > 100 µM | > 100 µM | > 100 |
| CCC(C)[C@H](NC(=O)NC(=O)NC(=O)CI)C(=O)OC (stereo partly specified) | 11.3 | 23.4 µM | 1.89 | 4 µM | 17.4 | 39.4 µM | 15.4 | 14.2 | 27.3 µM | 10.5 | 22.3 | 1.51 | 3.01 µM | 1.6 | 3.4 | 16.6 | 33.2 | 16.3 µM | 31.4 µM | 31.6 |
| CC1=C(C(=O)Nc2ccc3[nH]ncc3c2)C(c2ccc(Cl)c(Cl)c2)CC(=O)N1 (stereo unspecified) | > 25 | > 25 µM | 10.6 | > 25 µM | > 25 | > 25 µM | > 25 | > 25 | > 25 µM | > 25 | > 25 | 19.5 | > 25 µM | > 25 | > 25 | > 25 | > 25 | 17 µM | > 25 µM | > 25 |
| COc1cc2oc(-c3ccc(O)cc3O)c(CC=C(C)C)c(=O)c2c(O)c1/C=C/C(C)C | – | 4.53 µM | – | 14.2 µM | – | 14.5 µM | – | – | 17.9 µM | – | 4.49 | – | 12.1 µM | – | 5.59 | – | 7.51 | – | 5.93 µM | 9.42 |
| N#Cc1ccsc1NC(=O)COC(=O)c1cccc(S(=O)(=O)N2CCc3ccccc32)c1 | 47.3 | > 100 µM | 75.8 | > 100 µM | 18.2 | > 100 µM | 55.8 | > 100 | > 100 µM | 41.4 | > 100 | 34.8 | > 100 µM | 37.9 | > 100 | 38.6 | > 100 | 22 µM | > 100 µM | > 100 |
| COc1cc(/C=C2\Oc3cc(OCCCN4CCCC4)ccc3C2=O)cc(OC)c1 | 3.86 | 14.5 µM | 1.77 | 4.26 µM | 3.43 | 12.3 µM | 3.31 | 14.7 | 30.2 µM | 10.5 | 22.4 | 14.2 | 32.7 µM | 2.6 | 6.66 | 4.82 | 17.7 | 3.68 µM | 15.3 µM | 13.4 |
| C/C(=N\NC(=S)N1CCN(C2CCCCCC2)CC1)c1ccccn1 | 0.0121 | 3.58 µM and 1.95 µM | 0.0382 | 3.09 µM | – | 1.45 µM | 3.17 | 2.02 | 9.66 µM and 3.16 µM | – | 2 | < 0.001 | 0.12 µM and 0.267 µM | < 0.001 | – | 0.0229 | 3.13 | 0.0198 µM and < 0.0156 µM | 1.41 µM | 8.3 |
| O=C1CCCCC=C1C[N+](=O)[O-] | 17.6 | 39.6 µM | 30.3 | 53.5 µM | 34.3 | > 100 µM | 42.1 | 19.5 | 44.4 µM | 20.6 | 41.2 | 14.6 | 37 µM | 14 | > 100 | 45.1 | > 100 | 15.1 µM | 45.6 µM | > 100 |
| Cc1cccc2nc3cccc(C(=O)NCCNCCNCCNC(=O)c4cccc5nc6cccc(C)c6nc45)c3nc12 | < 0.0333 | 7.74 µM | < 0.0302 | 2.21 µM | < 0.01 | 0.19 µM | < 0.01 | < 0.01 | 0.186 µM | < 0.01 | 1.41 | < 0.01 | 0.159 µM | < 0.0139 | 1.12 | < 0.01 | 3.42 | < 0.01 µM | 1.19 µM | 15.5 |
| CNc1cc2nc3cc(NC)c(C)cc3cc2cc1C | 0.683 | 2.05 µM | 2.7 | 19.8 µM | 0.41 | 1.66 µM | 1.48 | 6 | 26.2 µM | 2.48 | 18.3 | 0.552 | 5.06 µM | 2.58 | 15.9 | 0.792 | 2.28 | 1.3 µM | 16 µM | 16.6 |
